The source of these data is US4602035A, “Antidepressant (3-aryl-2,3-dihydrobenzofuran-3-yl)alkylamines” (Hoechst-Roussel Pharmaceuticals Inc., priority 1983, dated 1986).

Counter-ions that a name gives are not always drawn. Like-named read-outs stand apart in the source and are kept apart here.

The test system of experiment [1] is Tetrabenazine induced ptosis in mice. The experiment in a line: Prevention of tetrabenazine (TBZ) induced ptosis in mice (antidepressant activity). Type of experiment: in vivo. The note with it: Mus musculus; for inhibition in vivo at 20 mg/kg: 20 mg/kg i.p., read-out: TBZ Percent ptosis inhit. @ 20 mg/kg i.p. The method, then:
The method used is as follows.
Male mice weighing 20 to 30 grams are used in test groups of five subjects. All compounds are dissolved, or suspended with one drop of a non-ionic surfactant in distilled water and administered in volumes of 10 ml/kg of body weight. Tetrabenazine (TBZ) solution is made from methanesulfonate salt and the concentration is adjusted to enable the administration of 40 mg/kg of base by intraperitoneal injection (i.p.).
If the test compound is administered intraperitoneally, TBZ is injected 30 minutes after administration. If the test compound is administered orally (p.o.), TBZ is injected 60 minutes after the administration. A control group receives solvent and TBZ by the same route and at the same intervals as the drug groups.
The total score for each group of five will therefore be from 0 to 20 and these scores are used as indications of drug activity.
The vehicle-control group score is used as a determinate of the validity of each test.
A linear-regression analysis is used to estimate ED50 values.

Experiment [2] has as its system 2-phenyl-1,4-benzoquinone-induced writhing in mice. The experiment in a line: 2-phenyl-1,4-benzoquinone-induced writhing (PQW) test in mice (analgesic activity). The experiment is classed as in vivo. The note with it: for inhibition in vivo at 10 mg/kg / ED50: Mus musculus, sc; for inhibition in vivo at 10 mg/kg: 10 mg/kg s.c., read-out: PQW Percent writhing inhib. @ 10 mg/kg s.c.; for PQW Percent writhing inhib.: s.c. From the text: Compounds I of the present invention are also useful as analgesic agents due to their ability to alleviate pain in mammals. […] Exptl. Biol. Med., 95, 729 (1957)].

Where [3] appears, read: footnote a: determined by oral administration, mice, TBZ 40 mg/kg i.p., read-out: TBZ ED50 i.p.

As a reminder, the ED50 is the dose that gives a 50% effect, or the effect in half of the subjects. Take `CN(C)CCCN1c2ccccc2CCc2ccccc21` [imipramine, reference compound]: the ED50 in experiment [1] (po, read-out: antidepressant ED50) is 5.5 mg/kg. Turning to `CNCCCC1(c2ccccc2)COc2ccccc21.Cl` (stereo not shown) [3-(3-Phenyl-2,3-dihydrobenzofuran-3-yl)-N-methylpropylamine hydrochloride], the ED50 in experiment [1] (ip, mice, TBZ 40 mg/kg i.p., read-out: TBZ ED50 i.p.) was 13.7 mg/kg. Besides, the inhibition in vivo at 10 mg/kg in experiment [2] worked out at 54%. `CN(CCCC1(c2ccccc2)COc2ccccc21)CC1CC1` (stereo not shown) [3-(3-Phenyl-2,3-dihydrobenzofuran-3-yl)-N-cyclopropylmethyl-N-methylpropylamine oxalate]: the inhibition in vivo at 20 mg/kg in experiment [1] (ip, mice) came to 10%. Also, the inhibition in vivo at 10 mg/kg in experiment [2] was 48%. In the case of `CN(C)CCC1(c2ccccc2F)COc2ccccc21` (stereo not shown) [3-[3-(2-Fluorophenyl)-2,3-dihydrobenzofuran-3-yl]-N,N--dimethylethylamine fumarate], the inhibition in vivo at 20 mg/kg in experiment [1] (ip, mice) is 60%. For the same compound, the inhibition in vivo at 10 mg/kg in experiment [2] was found to be 35%. With `CN(C)CCCC1(c2ccccc2)COc2ccc(Cl)cc21.O=C(O)C(=O)O` (stereo not shown) [3-(3-Phenyl-5-chloro-2,3-dihydrobenzofuran-3-yl)-N,N-dimethylpropylamine oxalate], the inhibition in vivo at 20 mg/kg in experiment [1] (ip, mice) came to 15%. The “PQW Percent writhing inhib.” value in experiment [2] (footnote b: at 20 mg/kg) was 38%. `Cc1ccccc1C1(CCN(C)C)COc2ccccc21` (stereo not shown) [3-[3-(2-Tolyl)-2,3-dihydrobenzofuran-3-yl]-N,N-dimethylethylamine fumarate]: the inhibition in vivo at 20 mg/kg in experiment [1] (ip, mice) was determined as 10%. In addition, the inhibition in vivo at 10 mg/kg in experiment [2] stood at 34%. In the case of `CN(C#N)CCC1(c2ccccc2)COc2ccccc21` (stereo not shown) [2-(3-Phenyl-2,3-dihydrobenzofuran-3-yl)-N-cyano-N-methylethylamine], the inhibition in vivo at 20 mg/kg in experiment [1] (ip, mice) was determined as 20%. For the same compound, in experiment [2], the inhibition in vivo at 10 mg/kg amounted to 59%.

For the compound `CN(C)CCC1(c2ccccc2)COc2ccccc21.O=C(O)C(=O)O` (stereo not shown) [2-(3-Phenyl-2,3-dihydrobenzofuran-3-yl)-N,N-dimethylethylamine oxalate], the 50% effective dose (ED50) in experiment [1] (setting [3]) stood at 3.03 mg/kg. Besides, the “PQW Percent writhing inhib.” value in experiment [2] (footnote b: at 20 mg/kg) is recorded as 49%. `CN(CCC1(c2ccccc2)COc2ccccc21)C(=O)OCC(Cl)(Cl)Cl` (stereo not shown) [2-(3-Phenyl-2,3-dihydrobenzofuran-3-yl)-N-(2,2,2-trichloroethoxycarbonyl)-N-methylethylamine]: the inhibition in vivo at 20 mg/kg in experiment [1] (ip, mice) is 6%. For `CN(CCCC1(c2ccccc2)COc2ccccc21)C(=O)OCC(Cl)(Cl)Cl` (stereo not shown) [3-(3-Phenyl-2,3-dihydrobenzofuran-3-yl)-N-(2,2,2-trichloroethoxycarbonyl)-N-methylpropylamine], in experiment [2], the inhibition in vivo at 10 mg/kg amounted to 32%.

On to `CN(C)CCCC1(c2ccccc2)COc2ccccc21.O=C(O)C(=O)O` (stereo not shown) [3-(3-Phenyl-2,3-dihydrobenzofuran-3-yl)-N,N-dimethylpropylamine oxalate], for which, in experiment [1] (ip, mice), the inhibition in vivo at 20 mg/kg came out at 37%. Besides, the “PQW Percent writhing inhib.” value in experiment [2] (footnote c: at 25 mg/kg) worked out at 59%.

For `CN(CCCC1(c2ccccc2)COc2ccccc21)CCc1ccccc1` (stereo not shown) [3-(3-Phenyl-2,3-dihydrobenzofuran-3-yl)-N-methyl-N-phenethylpropylamine oxalate], the inhibition in vivo at 20 mg/kg in experiment [1] (ip, mice) came to 0%. The inhibition in vivo at 10 mg/kg in experiment [2] amounted to 46%. As for `CN(CCC#N)CCC1(c2ccccc2)COc2ccccc21` (stereo not shown) [2-(3-Phenyl-2,3-dihydrobenzofuran-3-yl)-N-(2-cyanoethyl)-N-methylethylamineoxalate], the inhibition in vivo at 20 mg/kg in experiment [1] (ip, mice) stood at 21%. Moreover, in experiment [2] (footnote b: at 20 mg/kg), the “PQW Percent writhing inhib.” value was determined as 33%. With `Cc1ccc(C2(CCN(C)C)COc3ccccc32)cc1` (stereo not shown) [3-[3-(4-Tolyl)-2,3-dihydrobenzofuran-3-yl]-N,N-dimethylethylamine fumarate], in experiment [1] (ip, mice), the inhibition in vivo at 20 mg/kg was 20%. Further, the inhibition in vivo at 10 mg/kg in experiment [2] came to 61%. Take `CNCCC1(c2ccccc2)COc2ccccc21.Cl` (stereo not shown) [2-(3-Phenyl-2,3-dihydrobenzofuran-3-yl)-N-methylethylamine hydrochloride]: the ED50 in experiment [1] (setting [3]) is 4.99 mg/kg. Moreover, the inhibition in vivo at 10 mg/kg in experiment [2] stood at 53%.

In the case of `CN(CCc1ccccc1)CCC1(c2ccccc2)COc2ccccc21.O=C(O)/C=C/C(=O)O` (stereo not shown) [2-(3-Phenyl-2,3-dihydrobenzofuran-3-yl)-N-methyl-N-phenethylethylamine fumarate], the inhibition in vivo at 20 mg/kg in experiment [1] (ip, mice) is 17%. In experiment [2], this compound showed an ED50 of 20 mg/kg. For `CN(CCC1(c2ccccc2)COc2ccccc21)CC1CC1.O=C(O)/C=C/C(=O)O` (stereo not shown) [2-(3-Phenyl-2,3-dihydrobenzofuran-3-yl)-N-cyclopropylmethyl-N-methylethylamine fumarate] the same measures were 22% and 6.27 mg/kg.
